Columns and labels:
[1] = system: total RNase activity in pancreas lysate; test: RNaseAlert fluorescent assay, pancreas lysate; assay type: biochemical, mouse
Method: (§1) Flash-frozen mouse tissues (5 mg) were dounced in 50 ul of 24 mM Hepes, pH 7.2, 50 mM NaCl, 1 mM MgCl2. RNase activity was measured using Ambion's fluorescent RNaseAlert™ assay ([…] substrate, 10 ug/ml ultrapure BSA) via BMG POLARstar Optima Fluorometer according to the manufacturer's protocol. In addition to measuring total RNase activity, lysates were treated with Ap5A, heat (90 C for 10 min), or 0.5 U/ul RIP. Tissue lysate dilutions: pancreas 1:16,200; liver 1:17; thymus 1:17; kidney 1:17; spleen 1:810; lung 1:810. The data were normalized to maximum RNase activity observed in tissue lysate with kidney being the tissue with the lowest RNase activity and assigned the arbitrary unit of 1. […] However, RIP is specific to RNase A superfamily enzymes, where Ap5A, as a RNA analogue, is expected to be a more general RNase inhibitor.
Pancreatic tissue (5 mg) was dounced in 50ul of 24 mM Hepes, pH 7.2, 50 mM NaCl, 1 mM MgCl2. Diluted pancreas lysate (1:12,000) was subjected to a 1/10 volume of negatively charged SP resin. RNase activity of the clarified lysate was measured using. Ambion's fluorescent RNaseAlert™ assay (40 nM substrate, 10 ug/ml ultrapure BSA) via BMG POLARstar Optima, according to the manufacturer's instructions. Resin treatment removed >95% of total RNase activity in diluted pancreas lysate. […] In this case, inactivation is accomplished by binding of the positively-charged RNase to the negatively-charged sulfopropyl resin. Thus the RNases can be physically removed from the tissue lysate and separated from the RNA that they might otherwise degrade over time.

[2] = system: total RNase activity in liver lysate; test: RNaseAlert fluorescent assay, liver lysate; assay type: biochemical, mouse; details: heated + 2.9 mM Ap5A
Method: as §1

[3] = system: total RNase activity in thymus lysate; test: RNaseAlert fluorescent assay, thymus lysate; assay type: biochemical, mouse; details: heated + 2.9 mM Ap5A
Method: as §1

[4] = system: total RNase activity in kidney lysate; test: RNaseAlert fluorescent assay, kidney lysate; assay type: biochemical, mouse; details: heated + 2.9 mM Ap5A
Method: as §1

diluted liver lysate = details: 5 mm edta, liver lysate 1:5, e. coli total rna, room temperature 5.5 min
Method: Tissues (5 mg) were dounced in 50 ul of non-denaturing, neutral ph buffer (24 mm hepes, ph 7.2, 50 mm nac1, 1 mm mgc12). Diluted tissue lysates (pancreas 1:20,000; liver 1:5) or 5 pg/ul bovine rnase a were pre-incubated with 0.2u/ul rip, 50 mm citrate or 5 mm edta for 30 sec. A total of 100 pg/ul e. Coli total rna was then added to the mixture and incubated at room temperature for an additional 4 min (FIG. 1., Lanes 1-5) or 5.5 min (lanes 6&7). […] The sample (1 ul) was analyzed by bioanalyzer 2100 after separation on an ma labchip.

RNase A [5] = test: Salt-based inhibition of RNase activity (RNaseAlert); assay type: biochemical, bovine; details: increasing salt concentrations, fluorescence 490/520 nm
RNase A [6] = target: T1, RNase A (Bos taurus, UniProt P61823); test: Radiolabeled RNA probe degradation gel assay, RNase A; assay type: biochemical
T1 sequence (P61823 27-150): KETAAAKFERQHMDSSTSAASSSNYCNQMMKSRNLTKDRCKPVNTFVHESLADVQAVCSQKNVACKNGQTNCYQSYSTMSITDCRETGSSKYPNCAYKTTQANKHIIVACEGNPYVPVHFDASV
Method: (§2) The activity of an anti-nuclease cocktail is readily determined using radiolabeled RNA or DNA to detect the inhibition of nuclease by anti-nuclease antibodies in the anti-nuclease cocktail. […] Assay buffer, nuclease and an anti-nuclease cocktail are then added to 0.5 ml microfuge tubes. A mixture comprising assay buffer, RNA or DNA and radiolabeled RNA or DNA is added to the microfuge tubes, and the tubes are vortexed and microfuged. After incubation of the tubes at 37° C. for 30 minutes, a portion of the tube contents is removed and placed into gel loading buffer. After mixing, the combination is loaded onto a gel, typically a 8M urea/5% acrylamide gel, which is exposed to film.
(§3) Radiolabeled RNA was used to detect the inhibition of RNase A, RNase T1, and RNase 1 by specific antibodies.
(§4) The “MIX” was prepared by combining 10× Assay Buffer (0.9 μl/rxn), 5 mg/ml yeast RNA (0.4 μl/rxn), ^32P-labeled β actin RNA (1 μl/rxn), and nuclease-free H2O (6.7 μl/rxn), for a total of 9 μl/rxn.
(§5) 1× Assay Buffer was added first. Then Specific RNase Cocktail, Specific Anti-RNase Cocktail and MIX were added. The tubes are vortexed and microfuged, then incubated at 37° C. for 30 min (Table 9).
(§6) At the end of the incubation time, 10 μl of solution was removed from the tube and placed into 10 μl Gel Loading Buffer II. The combination was mixed thoroughly and loaded onto a 8M urea/5% acrylamide gel. The gel was exposed to film for 30 min. at −80° C. with an intensifying screen.

RNase A, 1, and T1 = test: Anti-RNase antibodies / Specific Anti-RNase Cocktail with added non-antibody inhibitor; assay type: biochemical; details: 0.1–0.5% SDS added to cocktail
Method: as §2, §3, §4, §5, §6

diluted pancreas lysate = test: Intactness of total RNA (RNA LabChip), diluted pancreas lysate; assay type: biochemical, mouse; details: 1% SDS, pancreatic lysate 1:20,000, mouse liver total RNA, 25 C 4 min
Method: A total of 100 pg/ul e. […].
Pancreatic lysate (0.1 mg/ml) was diluted 1:20,000 in 24 mM Hepes, pH 7.2, 50 mM NaCl, 1 mM MgCl2 and pre-incubated with either 1% SDS or 6.25 mM OVA for 30 s prior to the addition of 2 ug mouse liver total RNA. Reactions were incubated at 25 C for an additional 4 min, quenched, and analyzed on an RNA LabChip.
Mouse pancreatic tissue (5 mg) was disrupted in 50 ul of 24 mM Hepes, pH 7.2, 50 mM NaCl, 1 mM MgCl2. The diluted lysate (1:20,000) was pre-incubated with 50 uM Benzopurpurin B (BpB) for 30 sec and then added to 100 ng/ul mouse liver total RNA (Ambion) and incubated at 23 C for an additional 4 min. Samples were quenched in a guanidinium lysis buffer, and the RNA purified via MEGAclear™ MAG-96 and eluted with 20 ul nuclease-free water. […] These experiments were conducted in the same fashion except that 100 uM BpB was employed. The sample (1 ul) was analyzed by 2100 BioAnalyzer software (Agilent) after separation on an RNA LabChip.
Mouse pancreatic tissue (5 mg) was dounced in 50 ul of 24 mM Hepes, pH 7.2, 50 mM NaCl, 1 mM MgCl2. A diluted lysate (1:20,000) was pre-incubated with 100 uM BpB or the analog Benzopurpurin 4B (Bp4B) for 30 sec and then added to 100 ng/ul mouse liver total RNA (Ambion) and incubated at 23 C for an additional 4 min. Samples were quenched in a guanidinium lysis buffer, and the RNA purified via MEGAclear™ MAG-96 and eluted with 20 ul nuclease-free water. The sample (1 ul) was analyzed by 2100 BioAnalyzer software (Agilent) after separation on an RNA LabChip.
Pancreatic tissue (5 mg) was dounced in 50 ul of 24 mM Hepes, pH 7.2, 50 mM NaCl, 1 mM MgCl2. The lysate was diluted (1:20,000) and then pre-incubated with 200 uM of 467929. […] All samples were pre-incubated for 30 sec before being added to 100 ng/ul mouse liver total RNA (Ambion) and incubated at 23C for an additional 4 min. The RNA was then immediately purified via MEGAclear™ MAG-96 and eluted with 20 ul nuclease-free water. The recovered RNA (1 ul) was analyzed by 2100 BioAnalyzer software after separation on an RNA LabChip.

RNase T1 = target: T2, RNase T1 (Aspergillus oryzae, UniProt P00651); test: Radiolabeled RNA probe degradation gel assay, RNase T1; assay type: biochemical; details: 2.5 to 5 ug of heparin
T2 sequence (P00651 27-130): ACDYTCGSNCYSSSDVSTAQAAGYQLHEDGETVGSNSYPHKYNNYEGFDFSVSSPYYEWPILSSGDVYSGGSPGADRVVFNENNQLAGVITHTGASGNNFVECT
Method: The activity of anti-nuclease antibodies is readily determined using radiolabeled RNA or DNA to detect the inhibition of RNase or DNase by the anti-nuclease antibodies. In general, the nuclease and anti-nuclease antibody are separately diluted, typically in 1× assay buffer. Assay buffer, nuclease and anti-nuclease antibody are then added to 0.5 ml microfuge tubes. For assaying anti-RNase activity, a mixture comprising assay buffer, RNA and radiolabeled RNA is added to the microfuge tubes. The “MIX” of assay buffer, RNA and radiolabeled RNA is generally prepared by combining 10× Assay Buffer (0.9 μl/rxn), 5 mg/ml yeast RNA (0.4 μl/rxn), ^32-β actin RNA (1 μl/rxn), and nuclease-free H2O (6.7 μl/rxn) for a total of 9 μl/rxn. The tubes are vortexed and microfuged, then incubated at 37° C. for 30 minutes. After incubation, a portion of the tube contents is removed and placed into gel loading buffer. Then the tube contents and the gel loading buffer are mixed, and the combination is loaded onto a gel, typically a 8M urea/5% acrylamide gel, which is exposed to film. […]
The activity of an anti-nuclease cocktail is readily determined using radiolabeled RNA or DNA to detect the inhibition of nuclease by anti-nuclease antibodies in the anti-nuclease cocktail. […]

Nc1ncnc2c1ncn2[C@@H]1O[C@H](COP(=O)(O)OP(=O)(O)OP(=O)(O)OP(=O)(O)OP(=O)(O)OC[C@H]2O[C@@H](n3cnc4c(N)ncnc43)[C@H](O)[C@@H]2O)[C@@H](O)[C@H]1O [Ap5A]
% Inhibition ([1]; Pancreas + 232 uM Ap5A): 44.3% | Slope/sec ([1]; Pancreas + 232 uM Ap5A): 13.58 | % Inhibition ([1]; Pancreas + 1.3 mM Ap5A): 87.5% | Slope/sec ([1]; Pancreas + 1.3 mM Ap5A): 3.05 | % Inhibition ([1]; Pancreas + 2.9 mM Ap5A): 97.7% | Slope/sec ([1]; Pancreas + 2.9 mM Ap5A): 0.55 | % Inhibition [2]: 97.2% | Slope/sec [2]: 0.46 | % Inhibition [3]: 88.5% | Slope/sec [3]: 0.33 | % Inhibition [4]: 98.9% | Slope/sec [4]: 0.02

O=C(O)CN(CCN(CC(=O)O)CC(=O)O)CC(=O)O [EDTA, ethylenediamine tetraacetic acid]
protection of total RNA from degradation (diluted liver lysate): significant protection

O=C([O-])CC(O)(CC(=O)[O-])C(=O)[O-].[Na+].[Na+].[Na+] [NaCitrate]
effect on RNase A activity (RNase A [5]): Inhibits

[Cl-].[Na+] [NaCl]
effect on RNase A activity (RNase A [5]): inhibits

CCCCCCCCCCCCOS(=O)(=O)[O-].[Na+] [SDS, sodium dodecyl sulfate]
concentration that inhibited activity of RNase A (RNase A [6]; 50 pg of RNase A): 0.25% SDS inhibited activity of 50 pg of RNase A. | effect on anti-RNase A, 1, and T1 action of Specific Anti-RNase Cocktail (RNase A, 1, and T1): Addition of 0.1–0.5% SDS to Specific Anti-RNase Cocktail strengthened anti- | protection of RNA from degradation (diluted pancreas lysate): help remedy RNA degradation

heparin
effect on activity of RNases A (RNase A [6]; 2.5 to 5 ug of heparin): *This amount of heparin did not effect the activities of RNases A and Rnases T1. | effect on activity of Rnases T1 (RNase T1): *This amount of heparin did not effect the activities of RNases A and Rnases T1.

From US7264932B2, “Nuclease inhibitor cocktail” (Applera Corporation, priority 1999, dated 2007)
